Earlier results in patent publication US20060188579A1, “Novel process” (priority 2003, published 2006).

Conditions: particles produced by the method of WO00/38811; lowest value ('down to')

Nc1cnc(-c2cc(Cl)cc(Cl)c2Cl)c(N)n1 [2,6-diamino-3-(2,3,5-trichlorophenyl)pyrazine]
dv(0.5): 1.64 μm
